The record followed here is US9777003B2, “Tricyclic heterocycles as bet protein inhibitors” (Incyte Corporation, priority 2013, dated 2017).

Where a name gives a salt, the structure may show the parent alone.

One experiment deals with BRD4-BD1 (Homo sapiens (Human), UniProt O60885). As to the kind of experiment: BRD4 AlphaScreen assay, BRD4-BD1. Type of experiment: binding. As to conditions: biotin-labeled tetra-acetylated histone H4 peptide, 75 min, room temperature, read-out: BRD4 BD-1 enzyme IC50. The protocol: (§1) BRD4-BD1 and BRD4-BD2 assays were conducted in white 384-well polystyrene plate in a final volume of 20 μL for BD1 and 40 μL for BD2. Inhibitors were first serially diluted in DMSO and added to the plate wells before the addition of other reaction components. The final concentration of DMSO in the assay was 1.25% (BD1) and 0.83% (BD2). The assays were carried out at room temperature for 75 min. in the assay buffer (50 mM HEPES, pH 7.4, 100 mM NaCl, 0.05% CHAPS, 0.01% BSA), containing 50 nM Biotin-labeled tetra-acetylated histone H4 peptide (H4Ac4), 3.8 nM (BRD4-BD1, BPS Bioscience #31040) or 20 nM (BRD4-BD2, BPS Bioscience #31041). The reaction followed by the addition of 20 μL of assay buffer supplemented with Streptavidin donor beads (PerkinElmer 6760002) and GSH Acceptor beads (PerkinElmer-AL109C) at 4 μg/mL under reduced light. After plate sealing, the plate was incubated in the dark at room temperature for 75 min. before reading on a PHERAstar FS plate reader (BMG Labtech). IC50 determination was performed by fitting the curve of percent control activity versus the log of the inhibitor concentration using the GraphPad Prism 5.0 software.

For the next experiment, the target named is BRD4-BD2 (Homo sapiens (Human), UniProt O60885). Nature of the experiment: BRD4 AlphaScreen assay, BRD4-BD2. In kind it is binding. As to conditions: biotin-labeled tetra-acetylated histone H4 peptide, 75 min, room temperature, read-out: BRD4 BD-2 enzyme IC50. The protocol:
as §1

`Cc1nnc2ccc3c(ccn3C(C)c3ccccc3)n12` (racemic) [Example 4, 1-methyl-6-(1-phenylethyl)-6H-pyrrolo[2,3-e][1,2,4]triazolo[4,3-a]pyridine]: the IC50 at BRD4-BD1 was 100 to 1000 nM; at BRD4-BD2, at most 100 nM.

Regarding `CCCCC(c1ccccc1)n1c(C)cc2c1ccc1nnc(C)n12` (racemic) [Example 24, 1,7-dimethyl-6-(1-phenylpentyl)-6H-pyrrolo[2,3-e][1,2,4]triazolo[4,3-a]pyridine], the IC50 at BRD4-BD1 and on BRD4-BD2 was 100 to 1000 nM throughout.

Consider `Cc1cc2c(ccc3nnc(C)n32)n1C(CO)c1ccccc1` (racemic) [Example 29, 2-(1,7-dimethyl-6H-pyrrolo[2,3-e][1,2,4]triazolo[4,3-a]pyridin-6-yl)-2-phenylethanol], for which the IC50 at BRD4-BD1 and on BRD4-BD2 was 100 to 1000 nM each time.

Take `Cc1nnc2ccc3c(cc(-c4ccn(C(C)CC#N)n4)n3Cc3ccccc3)n12` (racemic) [Example 87, 3-[3-(6-benzyl-1-methyl-6H-pyrrolo[2,3-e][1,2,4]triazolo[4,3-a]pyridin-7-yl)-1H-pyrazol-1-yl]butanenitrile Trifluoroacetate Salt]: the IC50 on BRD4-BD1 and at BRD4-BD2 was at most 100 nM each time.

`Cc1nnc2ccc3c(cc(-c4ccn(CC(C)C#N)n4)n3Cc3ccccc3)n12` (racemic) [Example 88, 3-[3-(6-benzyl-1-methyl-6H-pyrrolo[2,3-e][1,2,4]triazolo[4,3-a]pyridin-7-yl)-1H-pyrazol-1-yl]-2-methylpropanenitrile Trifluoroacetate Salt]: the IC50 on BRD4-BD1 and on BRD4-BD2 was at most 100 nM throughout.

On to `Cc1cc2c(cc(NC3CCCN(C)C3)c3nnc(C)n32)n1Cc1ccccc1` (racemic) [Example 144, 6-benzyl-1,7-dimethyl-N-(1-methylpiperidin-3-yl)-6H-pyrrolo[2,3-e][1,2,4]triazolo[4,3-a]pyridin-4-amine], for which the 50% inhibitory concentration (IC50) on BRD4-BD1 and at BRD4-BD2 was at most 100 nM in each case.

As to `Cc1cc2c(cc(NC3CCN(C)C3)c3nnc(C)n32)n1Cc1ccccc1` (racemic) [Example 145, 6-benzyl-1,7-dimethyl-N-(1-methylpyrrolidin-3-yl)-6H-pyrrolo[2,3-e][1,2,4]triazolo[4,3-a]pyridin-4-amine bis(trifluoroacetate) Salt], the half-maximal inhibitory concentration (IC50) at BRD4-BD1 and on BRD4-BD2 was at most 100 nM each time.

As for `Cc1nnc2ccc3c(cc(C4CCNC4)n3Cc3ccccc3)n12` (racemic) [Example 186, 6-Benzyl-1-methyl-7-pyrrolidin-3-yl-6H-pyrrolo[2,3-e][1,2,4]triazolo[4,3-a]pyridine bis(trifluoroacetate) Salt], the half-maximal inhibitory concentration (IC50) at BRD4-BD1 lay in the range of 1000 to 10000 nM; at BRD4-BD2 it was 100 to 1000 nM.

`CC(=O)N1CCC(c2cc3c(ccc4nnc(C)n43)n2Cc2ccccc2)C1` (racemic) [Example 187, 7-(1-Acetylpyrrolidin-3-yl)-6-benzyl-1-methyl-6H-pyrrolo[2,3-e][1,2,4]triazolo[4,3-a]pyridine Trifluoroacetate Salt]: the IC50 on BRD4-BD1 and on BRD4-BD2 was 1000 to 10000 nM throughout.

For `Cc1nnc2ccc3c(cc(-c4ncco4)n3Cc3cc(Cl)cc(CN4CCC(O)C4)c3)n12` (racemic) [Example 199, 1-(3-Chloro-5-{[1-methyl-7-(1,3-oxazol-2-yl)-6H-pyrrolo[2,3-e][1,2,4]triazolo[4,3-a]pyridin-6-yl]methyl}benzyl)pyrrolidin-3-ol bis(trifluoroacetate) Salt (Racemic)], the IC50 on BRD4-BD1 and at BRD4-BD2 was at most 100 nM each time.

Turning to `Cc1cc2c(cc(N[C@H]3CCN(C)[C@H](C)C3)c3nnc(C)n32)n1Cc1ccccc1` (racemic) [Example 225, 6-Benzyl-N-[(2R,4S)-1,2-dimethylpiperidin-4-yl]-1,7-dimethyl-6H-pyrrolo[2,3-e][1,2,4]triazolo[4,3-a]pyridin-4-amine and 6-Benzyl-N-[(2S,4R)-1,2-dimethylpiperidin-4-yl]-1,7-dimethyl-6H-pyrrolo[2,3-e][1,2,4]triazolo[4,3-a]pyridin-4-amine], the half-maximal inhibitory concentration (IC50) on BRD4-BD1 and on BRD4-BD2 was at most 100 nM in each case.

On to `Cc1cc2c(cc(NC3CCC(C#N)CC3)c3nnc(C)n32)n1Cc1ccccc1` (single isomer, unassigned) [Example 215 a, 4-[(6-benzyl-1,7-dimethyl-6H-pyrrolo[2,3-e][1,2,4]triazolo[4,3-a]pyridin-4-yl)amino]cyclohexanecarbonitrile Trifluoroacetate Salt], for which the IC50 was 100 to 1000 nM at BRD4-BD1 and at most 100 nM at BRD4-BD2.

Consider `Cc1cc2c(cc(N[C@H]3CC[C@@H](C#N)CC3)c3nnc(C)n32)n1Cc1ccccc1` (single isomer, unassigned) [Example 215 b, 4-[(6-benzyl-1,7-dimethyl-6H-pyrrolo[2,3-e][1,2,4]triazolo[4,3-a]pyridin-4-yl)amino]cyclohexanecarbonitrile Trifluoroacetate Salt], for which the concentration for half-maximal inhibition (IC50) on BRD4-BD1 and at BRD4-BD2 was at most 100 nM throughout.

In the case of `Cc1nnc2ccc3c(ccn3Cc3ccccc3)n12` [Example 1, 6-benzyl-1-methyl-6H-pyrrolo[2,3-e][1,2,4]triazolo[4,3-a]pyridine], the values for the IC50 on BRD4-BD1 and on BRD4-BD2 were 100 to 1000 nM and at most 100 nM, respectively.

For the compound `Cc1cc2c(ccc3nnc(C)n32)n1Cc1ccccc1` [Example 2, 6-benzyl-1,7-dimethyl-6H-pyrrolo[2,3-e][1,2,4]triazolo[4,3-a]pyridine], the half-inhibitory concentration (IC50) at BRD4-BD1 and at BRD4-BD2 was at most 100 nM each time.

For `Cc1cc2c(ccc3nnc(C)n32)n1S(=O)(=O)c1ccccc1` [Example 2a, 1,7-dimethyl-6-(phenylsulfonyl)-6H-pyrrolo[2,3-e][1,2,4]triazolo[4,3-a]pyridine], on BRD4-BD2, the IC50 is 100 to 1000 nM.

Take `Cc1nnc2ccc3c(ccn3S(=O)(=O)c3ccccc3)n12` [Example 3, 1-methyl-6-(phenylsulfonyl)-6H-pyrrolo[2,3-e][1,2,4]triazolo[4,3-a]pyridine]: the half-maximal inhibitory concentration (IC50) at BRD4-BD1 and at BRD4-BD2 was 100 to 1000 nM throughout.

Take `Cc1cc2c(ccc3nnc(C)n32)n1CCc1ccccc1` [Example 6, 1,7-dimethyl-6-(2-phenylethyl)-6H-pyrrolo[2,3-e][1,2,4]triazolo[4,3-a]pyridine]: the IC50 on BRD4-BD1 and on BRD4-BD2 was 100 to 1000 nM throughout.

Take `Cc1cc2c(ccc3nnc(C)n32)n1Cc1ccccn1` [Example 7, 1,7-dimethyl-6-(pyridin-2-ylmethyl)-6H-pyrrolo[2,3-e][1,2,4]triazolo[4,3-a]pyridine]: the IC50 at BRD4-BD1 and on BRD4-BD2 was 100 to 1000 nM in each case.

Consider `Cc1cc2c(ccc3nnc(C)n32)n1Cc1ccccc1Cl` [Example 8, 6-(2-chlorobenzyl)-1,7-dimethyl-6H-pyrrolo[2,3-e][1,2,4]triazolo[4,3-a]pyridine], for which the IC50 is 100 to 1000 nM on BRD4-BD1 and at most 100 nM at BRD4-BD2.

For `Cc1cc2c(ccc3nnc(C)n32)n1Cc1cccc(Cl)c1` [Example 9, 6-(3-chlorobenzyl)-1,7-dimethyl-6H-pyrrolo[2,3-e][1,2,4]triazolo[4,3-a]pyridine], the IC50 on BRD4-BD1 and at BRD4-BD2 was at most 100 nM throughout.

Consider `Cc1cc2c(ccc3nnc(C)n32)n1Cc1ccc(Cl)cc1` [Example 10, 6-(4-chlorobenzyl)-1,7-dimethyl-6H-pyrrolo[2,3-e][1,2,4]triazolo[4,3-a]pyridine], for which the half-inhibitory concentration (IC50) on BRD4-BD1 and at BRD4-BD2 was at most 100 nM in each case.

On to `Cc1cc2c(ccc3nnc(C)n32)n1Cc1cccnc1` [Example 11, 1,7-dimethyl-6-(pyridin-3-ylmethyl)-6H-pyrrolo[2,3-e][1,2,4]triazolo[4,3-a]pyridine], for which the concentration for half-maximal inhibition (IC50) at BRD4-BD1 and on BRD4-BD2 was 100 to 1000 nM in each case.

Consider `Cc1cc2c(ccc3nnc(C)n32)n1Cc1ccncc1` [Example 12, 1,7-dimethyl-6-(pyridin-4-ylmethyl)-6H-pyrrolo[2,3-e][1,2,4]triazolo[4,3-a]pyridine], for which the IC50 at BRD4-BD1 and on BRD4-BD2 was 100 to 1000 nM in each case.

As for `Cc1cc2c(ccc3nnc(C)n32)n1CC1CCCC1` [Example 13, 6-(cyclopentylmethyl)-1,7-dimethyl-6H-pyrrolo[2,3-e][1,2,4]triazolo[4,3-a]pyridine], the IC50 at BRD4-BD1 was 100 to 1000 nM; on BRD4-BD2, at most 100 nM.

Regarding `Cc1cc2c(ccc3nnc(C)n32)n1Cc1ccccc1F` [Example 14, 6-(2-fluorobenzyl)-1,7-dimethyl-6H-pyrrolo[2,3-e][1,2,4]triazolo[4,3-a]pyridine], the IC50 at BRD4-BD1 and on BRD4-BD2 was at most 100 nM each time.

On to `Cc1cc2c(ccc3nnc(C)n32)n1Cc1cccc(F)c1` [Example 15, 6-(3-fluorobenzyl)-1,7-dimethyl-6H-pyrrolo[2,3-e][1,2,4]triazolo[4,3-a]pyridine], for which the 50% inhibitory concentration (IC50) on BRD4-BD1 and on BRD4-BD2 was at most 100 nM throughout.

As for `Cc1cc2c(ccc3nnc(C)n32)n1Cc1ccc(F)cc1` [Example 16, 6-(4-fluorobenzyl)-1,7-dimethyl-6H-pyrrolo[2,3-e][1,2,4]triazolo[4,3-a]pyridine], the half-inhibitory concentration (IC50) on BRD4-BD1 and on BRD4-BD2 was at most 100 nM throughout.

Consider `Cc1ccccc1Cn1c(C)cc2c1ccc1nnc(C)n12` [Example 17, 1,7-dimethyl-6-(2-methylbenzyl)-6H-pyrrolo[2,3-e][1,2,4]triazolo[4,3-a]pyridine], for which the IC50 on BRD4-BD1 and on BRD4-BD2 was at most 100 nM throughout.
